Reference: publication PMC12410356 (International Journal for Parasitology: Drugs and Drug …, 2025)

How the values were obtained:
[1] = tested on: E. multilocularis metacestode vesicles; assay: Phosphoglucose isomerase (PGI) release assay (damage-marker release) on metacestode vesicles; format: cell-based, Echinococcus multilocularis; conditions: 10 μM; for PGI d5 (relative PGI release): 5 days; for PGI d12 (relative PGI release): 12 days
Method: In order to quantify the drug-induced damage on whole metacestode vesicles, phosphoglucose isomerase (PGI) assay was performed as described previously ([Stadelmann et al., 2010]) with few adaptations published recently ([Kaethner et al., 2023]). In short, 8 to 12 weeks-old metacestode vesicles were purified using 2 % sucrose with subsequent washes in PBS. Metacestode vesicles were diluted in two volumes of DMEM without phenol red containing penicillin (100 U/mL) and streptomycin (100 μg/mL). […] 0.1 % DMSO was used as a negative solvent control and 0.1 % Triton X-100 was used as a positive total damage control. Metacestode vesicles were incubated under a humid, 5 % CO2 atmosphere at 37 °C. After five and twelve days, supernatant was taken and pictures were made using a Nikon SMZ18 stereo microscope (Nikon, Basel, Switzerland) at 7.5 × magnification. PGI activity in the supernatants was measured on a HIDEX Sense microplate reader (Hidex, Turku, Finland). The corresponding values of the DMSO controls were subtracted from the values of the compounds and then PGI activity was calculated relative to 0.1 % Triton X-100. […] IC50 values were calculated applying the 3 parameter Weibull type 1 in R for each of the three independent experiments ([Ritler et al., 2020]).

[2] = tested on: E. multilocularis metacestode vesicles; assay: Metacestode vesicle viability assay (ATP, CellTiter-Glo); format: cell-based, Echinococcus multilocularis
Method: Viability was assessed after 12 days using the same metacestode vesicles as for the PGI release assay. Triton X-100 was added to each well to a final concentration of 0.1 %. Subsequently the metacestode vesicles were broken mechanically and 50 μL of the supernatant was mixed with 50 μL of CellTiter-Glo® buffer (Promega, Dübendorf, Switzerland). Measurements were performed on a HIDEX Sense microplate reader.

[3] = overview screen, singlets, relative to 0.1 % Triton X-100, DMSO subtracted
[4] = overview screen, 10 μM, singlets, 12 days, relative to DMSO control
[5] = confirmation screen, triplicates, mean
[6] = confirmation screen, 10 μM, triplicates, mean, 12 days

Compound	PGI d5 (relative PGI release) [1, 3] [%]	PGI d12 (relative PGI release) [1, 3] [%]	Viability d12 (relative viability) [2, 4] [%]	Viability d12 (relative viability) ([2]; 10 µM) [%]	PGI d5 (relative PGI release) [1, 5] [%]	PGI d12 (relative PGI release) [1, 5] [%]	Viability d12 (relative viability) [2, 6] [%]
C[C@H]1CC[C@@]2(O)C(C)(C)[C@@H]3CC[C@@]2(C)[C@H]1C3 [MMV1578556]	-0.5138	-7.5984	153.384				
Oc1ccc(NCc2ccccc2OCc2ccccc2)cc1 [MMV1580504]	-1.084	-20.6703	79.6345				
CN1CCN(c2ccc3[nH]c(-c4ccc5[nH]c(-c6ccc(O)cc6)nc5c4)nc3c2)CC1 [MMV020752]	-2.507	7.527		69.6365			
O=C(c1ccccc1)N1CCN(c2ccccc2NC(=O)C(Cl)(Cl)Cl)CC1 [MMV001014]	0.3132	-4.23	104.308				
COc1ccc(NC(=O)c2cc3ccccn3n2)cc1 [MMV374187]	0.2305	3.37	96.2395				
C=C(C)n1c(=O)n(Cc2ccccc2C)c2ccccc21 [MMV1579354]	29.5855	93.1874	10.0196		-0.0635	0.33	130.19
CC(=O)O[C@H]1C[C@@]2(C)[C@@H](C[C@@H](O)[C@H]3[C@@]4(C)CC[C@@H](O)[C@@H](C)[C@@H]4CC[C@@]32C)/C1=C(\CCC=C(C)C)C(=O)O [MMV1578575]	2.315	-12.4921		144.199			
Cc1[nH]c2ccccc2c1CCNCc1ccc(/C=C/C(=O)NO)cc1 [MMV010036]	1.148	-1.326	57.5391				
Clc1cccc(-c2nnc(-c3ccccc3)o2)c1 [MMV141011]	-1.462	-13.7141	31.8959				
Clc1cc(Cl)c2c(c1)CCc1ccccc1C2n1ccnc1 (stereo not drawn) [MMV1634492]	-1.087	-25.0724	206.655				
CCOc1ccc(C(=O)NCCc2ccccc2)cc1 [MMV124656]	-0.3368	10.9951	194.706				
O=C(O)c1cc(-c2ccc(Br)cc2)nc2ccc(Cl)cc12 [MMV247764]	0.5774	-0.4305	115.677				
CCc1nc2ccc(Cl)cn2c1C(=O)NCc1ccc(N2CCC(c3ccc(OC(F)(F)F)cc3)CC2)cc1 [MMV687696]	-3.859	-6.627	83.8288				
Oc1cc(-c2cccc3ccccc23)[nH]n1 [MMV422940]	-1.4338	-25.9471	50.1817				
CCc1oc2ccccc2c1C(=O)c1ccc(O)cc1 [MMV1578558]	-2.405	11.8922	72.3877				
CC(C)c1cc2c(cc1S(=O)(=O)O)[C@@]1(C)CCC[C@@](C)(C(=O)O)[C@@H]1CC2 [MMV1633675]	-5.75	-3.32	100.907				
COc1ccc2sc3c(c2c1)NC(C)CNC3=O (stereo not drawn) [MMV1782115]	-1.121	1.77	114.23				

Compound	PGI d5 (relative PGI release) [1, 3] [%]	PGI d12 (relative PGI release) [1, 3] [%]	Viability d12 (relative viability) [2, 4] [%]	Viability d12 (relative viability) ([2]; 10 µM) [%]	PGI d5 (relative PGI release) [1, 5] [%]	PGI d12 (relative PGI release) [1, 5] [%]	Viability d12 (relative viability) [2, 6] [%]
O=C(O)c1sccc1S(=O)(=O)n1ccc2cc(Br)ccc21 [MMV1580855]	0.195	35.1913	69.7674				
CCc1nc2ccccn2c1C(=O)NCc1ccccc1 [MMV1663457]	-2.34	-12.7903	46.6749				
N=c1n(CCN2CCCCC2)c2ccccc2n1CC(O)COc1ccc(Cl)cc1Cl (stereo not drawn) [MMV394033]	6.943	70.607	9.628		0.57	0.65	90.34
NC(=O)c1ccccc1NC(=O)c1ccc(C(=O)Nc2ccccc2C(N)=O)cc1 [MMV508427]	-1.548	-12.1939	83.3301				
Oc1cccc(C(Nc2nccs2)c2ccc3cccnc3c2O)c1 (stereo not drawn) [MMV642550]	8.475	88.2133	17.7096		0.17	0.81	142.26
C=CCN(C(=O)OCc1ccc([N+](=O)[O-])cc1)C1CCN(CC[C@](C)(CN(C)S(=O)(=O)c2ccccc2)c2ccccc2)CC1 [MMV1782214]	0.9992	3.53	76.726				
O=c1[nH]c(=O)n(Cc2cccc(Oc3ccccc3)c2)cc1Nc1ccccc1 [MMV1782107]	0.6712	-19.0475	211.334				
CCCCc1ccc(-c2nc(C)c(C(=O)OC)s2)cc1 [MMV1634392]	0.3728	0.05977	152.475				
CCc1cc(O)c(Oc2cccnc2N)cc1F [MMV1580854]	-1.596	-13.7258	45.6729				
CC1CCc2c(N3CCC(O)CC3)c(F)cc3c(=O)c(C(=O)O)cn1c23 (stereo not drawn) [MMV637659]	-2.748	-5.473		137.188			
OC(Cn1cncn1)(Cn1cncn1)c1ccc(F)cc1F [MMV002337]	-1.63	-24.335	76.1493				
CC(C)(C)c1ccc(C(=O)NC(=O)N2CCCc3ccccc32)cc1 [MMV1782212]	-2.428	-24.6748	85.4175				
O=S(=O)(NCB(O)O)c1cc2c(Cl)ccc(Cl)c2s1 [MMV1580841]	-1.0927	-26.0917	81.7436				
C[N+]1(C)CCCC(OC(=O)C(O)(c2ccccc2)c2ccccc2)C1 (stereo not drawn) [MMV002676]	-4.414	-4.73	80.9524				
COc1cc(C(C(=O)NC2CCCCC2)N(C(=O)Cc2c[nH]c3ccccc23)c2ccc(C(C)C)cc2)cc(OC)c1OC (stereo not drawn) [MMV1593544]	0.03783	0.3627	100.386				
O=c1cc(Nc2ccc3ccccc3c2)[nH]c(=O)[nH]1 [MMV1581546]	-1.553	-12.1764	58.2809				
